Source: US10662203B2, “Pyrido[2,3-b]indole compounds for the treatment and prophylaxis of bacterial infection” (Hoffmann-La Roche Inc., priority 2017, dated 2020)
In brackets after ≈: the same amount, converted by molar mass. Read-outs that look alike come from different tables or passages of the source.

How the values were obtained:
A. baumannii (ATCC17978) = test: 50% growth inhibitory concentration (IC50) determination assay; type: cell-based; details: Acinetobacter baumannii, ATCC17978, A. baumannii ATCC17978; Iso-Sensitest broth; 0.098 = detection limit
Procedure, shortened: (§1)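 Compounds were two-fold serially diluted (50 to 0.097 μM final) in Iso-Sensitest broth, with ~5×10^5 CFU/mL bacteria. Plates were incubated at 35±2° C and growth followed by OD600 every 20 min over 16 h to derive IC50.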

S. aureus (ATCC29213) = test: as above; type: cell-based; details: Staphylococcus aureus, Iso-Sensitest broth, 0.098 = detection limit
Procedure, shortened: as §1

[1] = system: K. pneumoniae (ATCC10031); test: as above; type: cell-based; details: Klebsiella pneumoniae, Iso-Sensitest broth, 0.098 = detection limit
Procedure, shortened: as §1

[2] = Single dose PK study (SDPK) in female CD-1 mouse; type: in vivo; details: MOUSE IV; for clearance: female, CD-1, plasma, read-out: CL total
Protocol: Single Dose PK Study (SDPK) in Female CD-1 Mouse: The single dose PK in female CD-1 mouse was performed to assess compound's pharmacokinetic properties. One group of animals were dosed via bolus intravenous (IV) of the respective compound. Blood samples (approximately 30 μL) were collected via saphenous vein at 5 mins, 15 min, 30 min, 1 hr, 2 hr, 4 hr and 7 hr. For last time point (24 hr), samples were collected via cardiac puncture while the mouse was under anesthesia. Blood samples were placed into tubes containing EDTA-K2 anticoagulant (2 μL of 0.5M per tube) and centrifuged at 3000 rpm for 10 minutes at 4° C. within half an hour to separate plasma from the samples. Following centrifugation, plasma samples were stored in polypropylene tubes, quick frozen over dry ice and kept at −70±10° C. until LC/MS/MS analysis. The pharmacokinetic parameters were calculated using non-compartmental module of WinNonlin® Professional 6.4.

[3] = Lyophilisation solubility assay (LYSA); type: physicochemical; details: phosphate buffer, pH 6.5, aqueous buffer, thermodynamic from solid, 0.05 M phosphate buffer, HPLC-UV
Procedure, shortened: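 Duplicate samples made from 10 mM DMSO stock. DMSO evaporated and the residue taken up in 0.05 M phosphate buffer, pH 6.5, stirred 1 h and shaken 2 h, then left overnight. Filtrate and its 1/10 dilution quantified by HPLC-UV.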

[4] = Cytotoxicity assay (HepG2, CellTiter-Blue cell viability); type: cell-based; details: human; HepG2 cells, 3 days treatment; "*": the detection limit; read-out: CC50
Protocol: The cytotoxicity of compounds of present invention was assessed by HepG2 assay. HepG2 cells (ATCC HB-8065™) were seeded into 96-well plates (1.2×10^4 cells per well) and treated with compounds for 3 days, cell viability was measured at day 3 post compound treatment using the CellTiter-Blue® Cell Viability Assay (Promega, Cat. No. G8082). 20 μL of Cell titer blue buffer were added to each well of the cells, which were incubated for 3 hours at 37° C., and the fluorescence value was measured by a plate reader (Molecular Device SpectraMax M2). The CC50 value of each compound is plotted with GraphPad Prism using four parameter logistic equation.

| Structure (SMILES) | IC50 (A. baumannii (ATCC17978)) [µM] | IC50 (S. aureus (ATCC29213)) [µM] | IC50 [1] [µM] | AUC total ([2]; 1.0 mg/kg-Solution) [ng·h/mL] | clearance ([2]; 1.0 mg/kg-Solution) [mL/min/kg] | AUC total ([2]; 0.7 mg/kg-Solution) [ng·h/mL] | clearance ([2]; 0.7 mg/kg-Solution) [mL/min/kg] | solubility thermodynamic [3] [µg/mL] | CC50 at 3 days [4] [nM] |
| --- | --- | --- | --- | --- | --- | --- | --- | --- | --- |
| CCn1cc(C(=O)O)c(=O)c2cc(-c3cnc4[nH]c5c(NC)cc(F)c(F)c5c4c3N3CC4CC3CO4)cnc21 (stereo not shown) [Example 1.05] | 0.725 | < 0.098 | < 0.098 | 162.7 | 100 |  |  |  |  |
| CCCN(C)c1c(-c2cnc3c(c2)c(=O)c(C(=O)O)cn3CC)cnc2[nH]c3c(NC)cc(F)c(F)c3c12 [Example 1.07] |  |  |  |  |  | 260.7 | 45.8 |  |  |
| CNc1cc(F)c(F)c2c1[nH]c1ncc(-c3cnc4c(c3)c(=O)c(C(=O)O)cn4CCN(C)C)c(N(C)C)c12 [Example 1.22] | 0.118 | < 0.098 | < 0.098 | 179.9 | 91.3 |  |  |  |  |
| CNc1cc(F)cc2c1[nH]c1ncc(-c3cnc4c(c3)c(=O)c(C(=O)O)cn4NC)c(N3CCOCC3)c12 [Example 1.52] | 0.233 | < 0.098 | < 0.098 | 305.8 | 57.4 |  |  |  |  |
| CCN(CC)CC1CN(c2c(-c3cnc4c(c3)c(=O)c(C(=O)O)cn4C)cnc3[nH]c4c(NC)cc(F)c(F)c4c23)CCO1 (stereo not shown) [Example 1.149] | 0.362 | < 0.098 | < 0.098 |  |  |  |  | 530 (≈ 875 µM) | 66600 |
| [2H]C([2H])([2H])Nc1cc(F)c(F)c2c1[nH]c1ncc(-c3cnc4c(c3)c(=O)c(C(=O)O)cn4C)c(N3CCC[C@H]3CN(C)C)c12 [Example 1.161] | 0.202 | 0.155 | < 0.098 |  |  |  |  | > 830 | > 100000 |
| CNc1cc(F)cc2c1[nH]c1ncc(-c3cnc4c(c3)c(=O)c(C(=O)O)cn4C)c(N3CCC[C@H]3CN(C)C)c12 [Example 1.162] | 0.283 | 0.162 | < 0.098 |  |  |  |  | 695 (≈ 1280 µM) | 67600 |
| CNc1cc(F)c(F)c2c1[nH]c1ncc(-c3cnc4c(c3)c(=O)c(C(=O)O)cn4C)c(N3CC[C@@H](CN4CCCC4)C3)c12 [Example 1.173] | 0.216 | < 0.098 | < 0.098 |  |  |  |  | 106 (≈ 180 µM) | 44900 |
| CNc1cc(F)c(F)c2c1[nH]c1ncc(-c3cnc4c(c3)c(=O)c(C(=O)O)cn4NC)c(N3CCOC(CN(C)C)C3)c12 (stereo not shown) [Example 1.181] | 0.916 | 0.444 | < 0.098 |  |  |  |  | 70 (≈ 118 µM) | > 100000 |
| CNc1cc(F)c(F)c2c1[nH]c1ncc(-c3cnc4c(c3)c(=O)c(C(=O)O)cn4C)c(N3CCC(N(C)C)CC3)c12 [Example 1.182] | 0.423 | 0.177 | < 0.098 |  |  |  |  | 147 (≈ 262 µM) | 91700 |
| CNc1cc(F)cc2c1[nH]c1ncc(-c3cnc4c(c3)c(=O)c(C(=O)O)cn4C)c(N3CCN(C)CC3)c12 [Example 1.184] | 0.148 | < 0.098 | < 0.098 |  |  |  |  | 52 (≈ 101 µM) | 28700 |
| CNc1cc(F)c(F)c2c1[nH]c1ncc(-c3cnc4c(c3)c(=O)c(C(=O)O)cn4NC)c(N3CCCC(CN(C)C)C3)c12 (stereo not shown) [Example 1.186] | 0.236 | < 0.098 | < 0.098 |  |  |  |  | 104 (≈ 176 µM) | 45600 |
| CNc1cc(F)cc2c1[nH]c1ncc(-c3cnc4c(c3)c(=O)c(C(=O)O)cn4C)c(N3CC[C@@H]4C(CCN4C)C3)c12 (stereo partly shown) [Example 1.188] | 0.307 | 0.232 | < 0.098 |  |  |  |  | 20 (≈ 36 µM) | 51600 |
| CNc1cc(F)c(F)c2c1[nH]c1ncc(-c3cnc4c(c3)c(=O)c(C(=O)O)cn4NC)c(N3CCCC(N(C)C)C3)c12 (stereo not shown) [Example 1.191] | 0.197 | 0.195 | < 0.098 |  |  |  |  | 181 (≈ 314 µM) | 29100 |
